Laboratory results reported in patent US9732068B1, “System for crystalizing chemical compounds and methodologies for utilizing the same” (GenSyn Technologies, Inc., priority 2013, dated 2017).

Assay: Particle size measurement of crystallized compound with Horiba L950 particle size analyzer
Assay type: physicochemical
Conditions: for Span: Span=(D90-D10)/D50; for median particle size: final solution after crystallization in system 10
Excerpt: Just as importantly as desirable small particle sizes is uniformity of particle size distributions (i.e., described by “D values”). D values of “D10”, “D50” and “D90” may be used to represent the midpoint and range of particle sizes of a given sample. The D10 particle size is the diameter at which 10% of a sample's mass is comprised of smaller particles. The D50 is the “mass median diameter” as it divides the sample equally by mass. The D90 particle size is the diameter at which 90% of a sample's mass is comprised of smaller particles.
System 10 of the present invention enables the production of customized particles within a narrow range of particle sizes. A common value used to express the uniformity of particle size distribution is the “span”. The span is a measure of how wide of a spectrum of particle sizes is produced. A system with a low relative span is desirable as it will produce more uniform distribution of particle sizes. Span can be calculated with the equation below: Span=(D90−D10)/D50.
Two grams of Paracetomol was dissolved in 100 grams of ethanol. Two grams of Soy Lecithin was dissolved in 50 grams of tetrahydrofuran (THF). The two solutions were combined and heated to 60° C. The solution was added to the input hopper of a dual piston pump 241. The pump 241 was fed into fluid input conduit 121 of the crystallization chamber 22 through a 0.006″ opening 701 of a nozzle 581. Heptane, at 10° C. was fed into fluid input conduits 122, 123 and 124 through 0.006″, 0.008″ and 0.008″ openings 702, 703, and 704 of nozzles 582, 583, and 584 respectively by an identical piston pump 242. The pressure on both pumps 241 and 242 was adjusted to 1000 psi. The mixed streams exited through fluid output conduit 32 and into fluid reservoir 34 containing approximately 100 ml of heptane. Approximately, the first third and last third of the mixture were discarded and only the central third collected in fluid reservoir 34. The final solution was sampled and the particle size was measured, in heptane, using a Horiba L950 particle size analyzer. The median particle size was about 1.3 microns. The Span was about 0.901.
Two grams of Carbamazepine was dissolved in 100 grams of ethanol. Two grams of Soy Lecithin was dissolved in 50 grams of THF. The two solutions were combined and heated to 60° C. The solution was added to the input hopper of a dual piston pump 241. The pump 241 was fed into fluid input conduit 121 of the crystallization chamber 22 through a 0.004″ opening 701 of a nozzle 581. Heptane, at 10° C. was fed into fluid input conduits 122, 123 and 124 through 0.006″, 0.007″ and 0.007″ openings 702, 703, and 704 of nozzles 582, 583, and 584 respectively by an identical piston pump 242. The pressure on both pumps 241 and 242 was adjusted to 1500 psi. The mixed streams exited through fluid output conduit 32 and into fluid reservoir 34 containing approximately 100 ml of heptane. Approximately, the first third and last third of the mixture were discarded and only the central third collected in fluid reservoir 34. The final solution was sampled and the particle size was measured, in heptane, using a Horiba L950 particle size analyzer. The median particle size was about 1.5 microns. The Span was about 0.916.
Two grams of Ketoprofen was dissolved in 100 grams of DMSO. Two grams of Sorbitan Monostearate was dissolved in 50 grams of THF. The two solutions were combined and heated to 60° C. The solution was added to the input hopper of a dual piston pump 241. The pump 241 was fed into fluid input conduits 121 of the crystallization chamber 22 through a 0.004″ opening 701 of a nozzle 581. DI water with 0.1% Polysorbate 20, at 5° C. was fed into fluid input conduits 122, 123 and 124 through 0.006″, 0.008″ and 0.008″ openings 702, 703, and 704 of nozzles 582, 583, and 584 respectively by an identical piston pump 242. The pressure on both pumps 241 and 242 was adjusted to 1500 psi. […]

Row | SMILES | Span (measured in DI water) | median particle size (measured in DI water) | Span (measured in heptane) | median particle size (measured in heptane)
1 | CC(C(=O)O)c1cccc(C(=O)c2ccccc2)c1 (racemic) [Ketoprofen, (RS)-2-(3-benzoylphenyl)propanoic acid] | about 1.078 | about 3.1 microns |  | 
2 | CC(C)c1c(C(=O)Nc2ccccc2)c(-c2ccccc2)c(-c2ccc(F)cc2)n1CC[C@@H](O)C[C@@H](O)CC(=O)O [Atorvastatin, (3R,5R)-7-[2-(4-fluorophenyl)-3-phenyl-4-(phenylcarbamoyl)-5-propan-2-ylpyrrol-1-yl]-3,5-dihydroxyheptanoic acid] | about 0.99 | about 126 nanometers |  | 
3 | NC(=O)N1c2ccccc2C=Cc2ccccc21 [Carbamazepine, 5H-dibenzo[b,f]azepine-5-carboxamide] |  |  | about 0.916 | about 1.5 microns
4 | CC(=O)Nc1ccc(O)cc1 [Paracetomol, N-(4-hydroxyphenyl)ethanamide] |  |  | about 0.901 | about 1.3 microns
